The test system of the assay is SK-N-MM (SKNMM-MYCN, doxycycline-inducible MYCN). Kind of assay: area under dose-response curve (CellTiter-Glo viability normalised to plate controls) (AUC (arbitrary units)); higher = more loss of viability; extreme values may be limits of the assay. In outline:
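For each compound, area under the dose-response curve was calculated from log2 CellTiter-Glo luminescence normalised to the positive and negative controls on each plate. The cells were SK-N-MM with doxycycline-inducible MYCN, plated at 1250 cells/100 μL in 96-well plates and moved to medium with or without doxycycline about 24 h later. Two days after that, 10-point 1:3 dilution series were pin-transferred (890-fold stock dilution), with re-dosing on day 4 and readout 3 or 8 days after drugging.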

Where [1] appears, read: MYCN induction (doxycycline): +doxycycline (MYCN induced), time after drugging: 3 days.
Where [2] appears, read: MYCN induction (doxycycline): +doxycycline (MYCN induced), time after drugging: 8 days.
Where [3] appears, read: MYCN induction (doxycycline): no doxycycline (MYCN not induced), time after drugging: 3 days.
Setting [4] is: MYCN induction (doxycycline): no doxycycline (MYCN not induced), time after drugging: 8 days.

Each structure is given as a SMILES string. ± gives the standard deviation of the averaged measurements.

Consider `C=C1C[C@@H]2CC[C@@]34C[C@H]5O[C@H]6[C@@H](O3)[C@H]3O[C@H](CC[C@@H]3O[C@H]6[C@H]5O4)CC(=O)C[C@@H]3[C@@H](OC)[C@@H](C[C@H](O)CN)O[C@H]3C[C@H]3O[C@@H](CC[C@@H]1O2)C[C@@H](C)C3=C` [ERIBULIN], for which the “area under dose-response curve” value worked out at 0 under setting [1], 0.398 under setting [2], 0 under setting [3] and 52.7 under setting [4].

Regarding `CCN(CCO)CCCC(C)Nc1ccnc2cc(Cl)ccc12` (centres undefined) [HYDROXYCHLOROQUINE], the “area under dose-response curve” value reads like this: under setting [1], 0; under setting [2], 0; under setting [4], 0.

As to `N#CN=C(NCCCCCCOc1ccc(Cl)cc1)Nc1ccncc1` [GMX-1778], the “area under dose-response curve” value reads like this: under setting [1], 172; under setting [2], 348; under setting [3], 119; under setting [4], 338.

Consider `Cc1sc2c(c1C)C(c1ccc(Cl)cc1)=N[C@@H](CC(N)=O)c1nnc(C)n1-2` [CPI-203], for which the “area under dose-response curve” value under setting [1] was 2.86, the “area under dose-response curve” value under setting [2] worked out at 38.6, the “area under dose-response curve” value under setting [3] was 8.36 and the “area under dose-response curve” value under setting [4] stood at 30.9.

In the case of `CC(C)(C)c1nc(-c2cccc(NS(=O)(=O)c3c(F)cccc3F)c2F)c(-c2ccnc(N)n2)s1` [DABRAFENIB], the “area under dose-response curve” value runs as follows: under setting [1], 9.29; under setting [2], 0; under setting [3], 14.1; under setting [4], 10.8.

As for `Cc1cc(Nc2ccc(NC(=O)c3ccc(Nc4ccnc5ccccc45)cc3)cc2)nc(N)n1` [SGI-1027], the “area under dose-response curve” value came out at 80.5 under setting [1], 201 under setting [2], 26.5 under setting [3] and 105 under setting [4].

As for `O=c1cc(-c2cccc3c2Sc2ccccc2S3)oc(N2CCOCC2)c1`, the “area under dose-response curve” value under setting [3] came to 16.3.

Consider `CCOc1cc(C(C)(C)C)ccc1C1=N[C@@](C)(c2ccc(Cl)cc2)[C@@](C)(c2ccc(Cl)cc2)N1C(=O)N1CCN(CCCS(C)(=O)=O)CC1` [RG7112], for which the “area under dose-response curve” value is, setting by setting: under setting [1], 0; under setting [2], 0; under setting [3], 0; under setting [4], 0.

With `CC(=O)c1c(C)c2cnc(Nc3ccc(N4CCNCC4)cn3)nc2n(C2CCCC2)c1=O` [PALBOCICLIB], the “area under dose-response curve” value runs as follows: under setting [1], 0; under setting [2], 78.6; under setting [3], 0; under setting [4], 65.5.

For `Cc1ccc(Nc2nccc(N(C)c3ccc4c(C)n(C)nc4c3)n2)cc1S(N)(=O)=O` [PAZOPANIB], the “area under dose-response curve” value under setting [1] turned out to be 21.1, the “area under dose-response curve” value under setting [2] was determined as 40.1, the “area under dose-response curve” value under setting [3] was 18.1 and the “area under dose-response curve” value under setting [4] came out at 29.2.

Turning to `C/C(=C\c1csc(C)n1)[C@@H]1C[C@@H]2O[C@]2(C)CCC[C@H](C)[C@H](O)[C@@H](C)C(=O)C(C)(C)[C@@H](O)CC(=O)N1` [IXABEPILONE], the “area under dose-response curve” value is, setting by setting: under setting [1], 121; under setting [2], 199; under setting [3], 89.9; under setting [4], 138.

With `Nc1nc(Cl)nc2c1ncn2[C@@H]1O[C@H](CO)[C@@H](O)[C@@H]1F` [CLOFARABINE], the “area under dose-response curve” value under setting [1] is 67.5, the “area under dose-response curve” value under setting [2] was found to be 248, the “area under dose-response curve” value under setting [3] is 43 and the “area under dose-response curve” value under setting [4] turned out to be 141.

In the case of `CS(=O)(=O)c1ccc(-c2cnc(N)c(C(=O)Nc3ccccc3)n2)cc1` [VE-821], the “area under dose-response curve” value reads like this: under setting [1], 41.9; under setting [2], 75.9; under setting [3], 8.07; under setting [4], 32.

Take `CN(C)C1CCN(C(=O)c2ccc(NC(=O)Nc3ccc(-c4nc(N5CCOCC5)nc(N5CCOCC5)n4)cc3)cc2)CC1` [GEDATOLISIB]: the “area under dose-response curve” value was found to be 39.4 under setting [1], 0 under setting [2], 27.4 under setting [3] and 47.7 under setting [4].

On to `CCN(CCCOc1ccc2c(Nc3cc(CC(=O)Nc4cccc(F)c4)[nH]n3)ncnc2c1)CCOP(=O)(O)O` [BARASERTIB], for which the “area under dose-response curve” value reads like this: under setting [1], 19.5; under setting [2], 92.2; under setting [4], 33.5.

Consider `COc1cccc2c1C(=O)c1c(O)c3c(c(O)c1C2=O)C[C@@](O)(C(=O)CO)C[C@@H]3O[C@H]1C[C@H](N)[C@H](O)[C@H](C)O1` [DOXORUBICIN], for which the “area under dose-response curve” value reads like this: under setting [1], 135; under setting [2], 295; under setting [3], 104; under setting [4], 224.

Turning to `CCC(=O)OCN1C(=O)C=CC1=O` [MIRA-1], the “area under dose-response curve” value under setting [4] was 39.

Turning to `CC(C)c1cc(-c2n[nH]c(=O)n2-c2ccc3c(ccn3C)c2)c(O)cc1O` [GANETESPIB], the “area under dose-response curve” value under setting [1] turned out to be 169, the “area under dose-response curve” value under setting [2] was found to be 378, the “area under dose-response curve” value under setting [3] stood at 202 and the “area under dose-response curve” value under setting [4] was determined as 398.

On to `N#CCNC(=O)c1ccc(-c2ccnc(Nc3ccc(N4CCOCC4)cc3)n2)cc1`, for which the “area under dose-response curve” value runs as follows: under setting [1], 40.7; under setting [2], 79.9; under setting [3], 0; under setting [4], 42.

`O=C(O)CCCc1ccc(N(CCCl)CCCl)cc1` [CHLORAMBUCIL]: the “area under dose-response curve” value is, setting by setting: under setting [1], 0.922; under setting [2], 0; under setting [3], 0.476; under setting [4], 2.34.

As to `Cc1cc(Nc2cc(N3CCN(C)CC3)nc(/C=C/c3ccccc3)n2)n[nH]1` [ENMD-2076], the “area under dose-response curve” value under setting [1] was 86, the “area under dose-response curve” value under setting [2] stood at 133, the “area under dose-response curve” value under setting [3] came out at 0.719 and the “area under dose-response curve” value under setting [4] worked out at 111.

Take `CC1(COc2ccc3c(c2)ncn3-c2ccc3cccc(N4CCC(N)CC4)c3n2)COC1` [CRENOLANIB]: the “area under dose-response curve” value runs as follows: under setting [1], 0; under setting [2], 136; under setting [3], 0; under setting [4], 146.

Turning to `C=CCn1c(=O)c2cnc(Nc3ccc(N4CCN(C)CC4)cc3)nc2n1-c1cccc(C(C)(C)O)n1` [MK-1775], the “area under dose-response curve” value is, setting by setting: under setting [1], 105 ± 20; under setting [2], 159 ± 26; under setting [3], 42.5 ± 14; under setting [4], 98.1 ± 4.8.

Turning to `CC(C)NC[C@@H](C(=O)N1CCN(c2ncnc3c2[C@H](C)C[C@H]3O)CC1)c1ccc(Cl)cc1` [IPATASERTIB], the “area under dose-response curve” value came out at 0 under setting [1], 0 under setting [2], 10.4 under setting [3] and 0.0606 under setting [4].

As to `O=C(c1ccc(F)c(F)c1Nc1ccc(I)cc1F)N1CC(O)([C@@H]2CCCCN2)C1` [COBIMETINIB], the “area under dose-response curve” value was 145 under setting [2], 51.1 under setting [3] and 104 under setting [4].

Take `COc1cc(F)ccc1-c1ncnc(Nc2cccc(CS(C)(=N)=O)c2)n1` (centres undefined): the “area under dose-response curve” value was 50.3 under setting [1], 123 under setting [2], 34 under setting [3] and 131 under setting [4].

On to `CN[C@H]1CN(c2ccc3c(=O)c(C(=O)O)cn(-c4nccs4)c3n2)C[C@@H]1OC` [VOSAROXIN], for which the “area under dose-response curve” value was 39.3 under setting [1], 92.8 under setting [2], 16.4 under setting [3] and 48.5 under setting [4].

`CC1(C)CCC(C)(C)c2cc(NC(=O)c3ccc(C(=O)O)cc3)ccc21` [TAMIBAROTENE]: the “area under dose-response curve” value was determined as 1.1 under setting [1], 3.09 under setting [2], 0 under setting [3] and 0 under setting [4].

As to `CN1C(=O)[C@@]23C[C@]4([C@]56C[C@@]78SS[C@@](CO)(C(=O)N7[C@H]5Nc5ccccc56)N(C)C8=O)c5ccccc5N[C@@H]4N2C(=O)[C@]1(CO)SS3` [CHAETOCIN], the “area under dose-response curve” value by setting is: under setting [1], 327; under setting [2], 374; under setting [3], 349; under setting [4], 373.

As for `CCN(CC)Cc1ccc2cc(COC(=O)Nc3ccc(C(=O)NO)cc3)ccc2c1` [GIVINOSTAT], the “area under dose-response curve” value runs as follows: under setting [1], 132; under setting [2], 283; under setting [3], 96.7; under setting [4], 226.

`CC[C@]1(O)C[C@H]2CN(CCc3c([nH]c4ccccc34)[C@@](C(=O)OC)(c3cc4c(cc3OC)N(C=O)[C@H]3[C@@](O)(C(=O)OC)[C@H](OC(C)=O)[C@]5(CC)C=CCN6CC[C@]43[C@@H]65)C2)C1` [VINCRISTINE]: the “area under dose-response curve” value runs as follows: under setting [1], 185; under setting [2], 253; under setting [3], 89.2; under setting [4], 146.

`Nc1nc2[nH]cc(CCc3ccc(C(=O)N[C@@H](CCC(=O)O)C(=O)O)cc3)c2c(=O)[nH]1` [PEMETREXED]: the “area under dose-response curve” value was determined as 6.04 under setting [1], 112 under setting [2], 0 under setting [3] and 58.3 under setting [4].

The values above are taken from the supplement of paper PMC7021759.
